The values below come from patent publication US9586951B2 (FUJIFILM Corporation, priority 2013, dated 2017).

The structures appear in SMILES notation.

The target in the experiment is T1, ATM (Homo sapiens, UniProt Q13315).
T1 construct: detecting phosphorylation of Chk2 in a human non-small cell lung cancer cell line NCI-H460 (ATCC company); host or cells: NCI-H460 human non-small cell lung cancer cells
T1 sequence (Q13315 whole entry): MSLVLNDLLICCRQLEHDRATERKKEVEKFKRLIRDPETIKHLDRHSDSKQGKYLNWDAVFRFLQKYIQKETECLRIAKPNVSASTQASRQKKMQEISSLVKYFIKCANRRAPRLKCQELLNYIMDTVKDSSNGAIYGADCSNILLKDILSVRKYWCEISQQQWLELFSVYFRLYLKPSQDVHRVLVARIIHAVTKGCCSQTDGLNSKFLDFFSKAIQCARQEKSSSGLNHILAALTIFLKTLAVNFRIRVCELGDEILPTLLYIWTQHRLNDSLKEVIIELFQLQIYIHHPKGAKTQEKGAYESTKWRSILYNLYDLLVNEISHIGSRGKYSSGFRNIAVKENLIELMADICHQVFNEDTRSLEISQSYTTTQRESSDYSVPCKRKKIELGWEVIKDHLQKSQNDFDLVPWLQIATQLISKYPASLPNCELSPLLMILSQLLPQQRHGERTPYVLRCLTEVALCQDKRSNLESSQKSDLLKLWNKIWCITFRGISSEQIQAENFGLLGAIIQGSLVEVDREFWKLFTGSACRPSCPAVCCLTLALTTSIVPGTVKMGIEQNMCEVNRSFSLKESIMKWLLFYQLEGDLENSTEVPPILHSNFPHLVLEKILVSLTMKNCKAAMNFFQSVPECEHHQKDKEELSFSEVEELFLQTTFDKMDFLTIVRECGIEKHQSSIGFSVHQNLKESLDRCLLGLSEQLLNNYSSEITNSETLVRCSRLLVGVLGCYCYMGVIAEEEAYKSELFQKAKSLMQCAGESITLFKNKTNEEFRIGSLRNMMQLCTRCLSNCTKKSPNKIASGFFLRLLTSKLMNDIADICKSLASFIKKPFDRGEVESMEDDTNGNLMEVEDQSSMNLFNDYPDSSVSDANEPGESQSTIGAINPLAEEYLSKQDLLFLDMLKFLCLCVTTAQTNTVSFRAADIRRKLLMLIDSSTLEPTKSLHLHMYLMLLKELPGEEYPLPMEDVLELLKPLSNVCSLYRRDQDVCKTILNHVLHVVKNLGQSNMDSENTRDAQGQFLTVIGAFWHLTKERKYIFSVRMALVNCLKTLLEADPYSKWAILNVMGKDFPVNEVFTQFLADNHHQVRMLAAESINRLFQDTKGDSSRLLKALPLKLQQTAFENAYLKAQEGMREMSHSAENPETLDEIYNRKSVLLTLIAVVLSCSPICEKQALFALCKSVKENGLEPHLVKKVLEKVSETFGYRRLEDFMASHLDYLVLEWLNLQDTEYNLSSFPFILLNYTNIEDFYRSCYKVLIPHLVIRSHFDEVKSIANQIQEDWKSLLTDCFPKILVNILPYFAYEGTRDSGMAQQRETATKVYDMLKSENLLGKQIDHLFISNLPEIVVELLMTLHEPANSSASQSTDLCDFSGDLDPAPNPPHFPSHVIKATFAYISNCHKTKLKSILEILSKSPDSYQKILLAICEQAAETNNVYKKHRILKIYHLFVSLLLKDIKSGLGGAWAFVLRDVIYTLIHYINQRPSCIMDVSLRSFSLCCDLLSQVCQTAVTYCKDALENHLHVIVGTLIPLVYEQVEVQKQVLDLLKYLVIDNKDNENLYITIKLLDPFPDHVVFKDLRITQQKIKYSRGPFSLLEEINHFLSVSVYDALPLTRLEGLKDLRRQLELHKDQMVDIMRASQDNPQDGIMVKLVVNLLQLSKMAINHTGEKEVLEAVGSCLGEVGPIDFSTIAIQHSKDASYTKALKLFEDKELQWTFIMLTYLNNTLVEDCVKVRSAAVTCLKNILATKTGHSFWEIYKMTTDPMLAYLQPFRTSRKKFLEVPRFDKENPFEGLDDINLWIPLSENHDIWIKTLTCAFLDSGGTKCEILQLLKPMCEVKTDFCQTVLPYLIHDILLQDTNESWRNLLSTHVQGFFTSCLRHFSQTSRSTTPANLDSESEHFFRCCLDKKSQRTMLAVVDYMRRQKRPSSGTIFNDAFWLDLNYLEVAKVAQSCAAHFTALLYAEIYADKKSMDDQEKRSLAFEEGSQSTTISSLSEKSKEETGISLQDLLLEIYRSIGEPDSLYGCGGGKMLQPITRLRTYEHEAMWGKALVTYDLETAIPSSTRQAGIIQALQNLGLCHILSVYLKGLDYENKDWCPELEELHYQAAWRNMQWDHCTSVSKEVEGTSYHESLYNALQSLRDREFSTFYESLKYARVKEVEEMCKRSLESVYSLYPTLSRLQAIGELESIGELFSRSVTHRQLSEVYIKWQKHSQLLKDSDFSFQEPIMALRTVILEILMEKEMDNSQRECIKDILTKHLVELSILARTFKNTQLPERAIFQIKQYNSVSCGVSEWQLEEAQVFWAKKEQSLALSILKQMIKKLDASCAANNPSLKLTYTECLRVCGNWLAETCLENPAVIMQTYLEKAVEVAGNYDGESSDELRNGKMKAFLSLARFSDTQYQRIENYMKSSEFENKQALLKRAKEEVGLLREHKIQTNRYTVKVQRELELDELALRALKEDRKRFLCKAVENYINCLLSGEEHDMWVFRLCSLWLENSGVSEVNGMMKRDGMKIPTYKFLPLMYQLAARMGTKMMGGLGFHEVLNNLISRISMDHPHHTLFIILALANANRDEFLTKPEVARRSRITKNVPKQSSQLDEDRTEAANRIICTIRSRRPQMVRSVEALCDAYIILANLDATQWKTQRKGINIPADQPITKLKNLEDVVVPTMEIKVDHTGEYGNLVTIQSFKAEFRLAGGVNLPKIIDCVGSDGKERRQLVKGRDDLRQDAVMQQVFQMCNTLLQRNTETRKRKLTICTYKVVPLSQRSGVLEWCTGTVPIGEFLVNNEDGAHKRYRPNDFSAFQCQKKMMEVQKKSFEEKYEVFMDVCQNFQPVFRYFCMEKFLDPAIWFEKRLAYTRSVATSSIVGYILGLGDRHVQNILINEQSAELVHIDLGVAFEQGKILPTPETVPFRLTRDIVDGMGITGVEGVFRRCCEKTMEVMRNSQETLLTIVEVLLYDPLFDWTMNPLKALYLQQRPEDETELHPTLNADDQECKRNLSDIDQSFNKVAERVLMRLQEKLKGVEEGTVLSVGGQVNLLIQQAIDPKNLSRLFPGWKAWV
The experiment is described as follows: ATM inhibition test (phosphorylation of Chk2 generated by ionizing radiation, AlphaScreen SureFire). The format is cell-based. To be noted: phosphorylated Chk2 in NCI-H460 cells, ionizing radiation 8Gy, 1 hour after test compound treatment; read-out: ATM inhibitory activity. The method, boiled down: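 Phosphorylated Chk2 read by AlphaScreen SureFire in human non-small cell lung cancer NCI-H460 cells, 1 hour after 8Gy ionizing radiation at 37° C. Compound added 1 hour before irradiation. Percent inhibition normalised between irradiated and non-irradiated drug-untreated signals.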
With `Cc1cc(CNc2ccc3c(c2)Sc2cccc(-c4cc(N5CCOCC5)cc(=O)[nH]4)c2S3)ccn1` [Example 1-44-3, 6-(7-(((2-Methylpyridin-4-yl)methyl)amino)thianthren-1-yl)-4-morpholino pyridin-2(1H)-one], the IC50 is 100 to 500 nM.
For the compound `CC(C)(C)OC(=O)N1CCC[C@H]1CNc1ccc2c(c1)Cc1cccc(-c3cc(N4CCOCC4)cc(=O)[nH]3)c1O2` [Example 2-21-3, (S)-tert-Butyl 2-(((5-(4-morpholino-6-oxo-1,6-dihydropyridin-2-yl)-9H-xanthen-2-yl)amino)methyl) pyrrolidine-1-carboxylate], the IC50 is 500 to 2000 nM.
As for `N#CCC(CN1CCOCC1)Nc1ccc2c(c1)Sc1cccc(-c3cc(N4CCOCC4)cc(=O)[nH]3)c1S2` (stereo not drawn) [Example 9-2, 4-Morpholino-3-((6-(4-morpholino-6-oxo-1,6-dihydropyridin-2-yl)thianthren-2-yl)amino)butanenitrile], the figure is 100 to 500 nM.
In the case of `Cc1ccc(C(CCN2CCCCC2)Nc2ccc3c(c2)Sc2cccc(-c4cc(N5CCOCC5)cc(=O)[nH]4)c2S3)nc1` (single isomer, unassigned) [Example 1-51-6, 6-(7-((1-(5-Methylpyridin-2-yl)-3-(piperidin-1-yl)propyl)amino)thianthren-1-yl)-4-morpholino pyridin-2(1H)-one] it was less than 100 nM.
In the case of `O=c1cc(N2CCOCC2)cc(-c2cccc3c2Sc2ccc(NCc4cccnc4)cc2C3)[nH]1` [Example 3-8-1, 4-Morpholino-6-(7-((pyridin-3-ylmethyl)amino)-9H-thioxanthen-4-yl)pyridin-2(1H)-one] it was 100 to 500 nM; in that of `O=c1cc(N2CCOCC2)cc(-c2cccc3c2Oc2ccc(NC4CCN(CC5CCCCC5)CC4)cc2C3)[nH]1` [Example 2-28-35, 6-(7-((1-(Cyclohexylmethyl)piperidin-4-yl)amino)-9H-xanthen-4-yl)-4-morpholino pyridin-2(1H)-one], 100 to 500 nM.
In the case of `O=c1cc(N2CCOCC2)cc(-c2cccc3c2Sc2ccc(NC4CCCN(C5CCOCC5)C4)cc2S3)[nH]1` (stereo not drawn) [Example 1-24-7, 4-Morpholino-6-(7-((1-(tetrahydro-2H-pyran-4-yl)piperidin-3-yl)amino)thianthren-1-yl)pyridin-2 (1H)-one], the IC50 was 100 to 500 nM.
As to `CC(Nc1ccc2c(c1)Sc1cccc(-c3cc(N4CCOCC4)cc(=O)[nH]3)c1S2)c1ccnc(C#N)n1` (stereo not drawn) [Example 1-12-82, 4-(1-((6-(4-Morpholino-6-oxo-1,6-dihydropyridin-2-yl)thianthren-2-yl)amino)ethyl) pyrimidine-2-carbonitrile], the IC50 lay within 100 to 500 nM.
As for `N#Cc1cccc(CNc2ccc3c(c2)Cc2ccnc(-c4cc(N5CCOCC5)cc(=O)[nH]4)c2O3)n1` [Example 2-41-15, 6-(((1-(4-Morpholino-6-oxo-1,6-dihydropyridin-2-yl)-5H-chromeno[2,3-c]pyridin-7-yl)amino)methyl)picolinonitrile], the figure is 100 to 500 nM; as for `O=c1cc(N2CCOCC2)cc(-c2cccc3c2Oc2ccc(NC4CCC5(CC4)OCCO5)cc2C3)[nH]1` [Example 2-2-62, 6-(7-(1,4-Dioxaspiro[4.5]decan-8-ylamino)-9H-xanthen-4-yl)-4-morpholino pyridin-2(1H)-one], 100 to 500 nM.
As for `O=c1cc(N2CCOCC2)cc(-c2cccc3c2Oc2ccc(NCc4cncc(N5CCCC5)c4)cc2C3)[nH]1` [Example 2-2-63, 4-Morpholino-6-(7-(((5-(pyrrolidin-1-yl)pyridin-3-yl)methyl)amino)-9H-xanthen-4-yl)pyridin-2(1H)-one], the figure is 100 to 500 nM; as for `COCCN1CCOC(C(Nc2ccc3c(c2)Sc2cccc(-c4cc(N5CCOCC5)cc(=O)[nH]4)c2S3)c2ccc(C)cn2)C1` (single isomer, unassigned) [Example 1-56-8, 6-(7-(((4-(2-Methoxyethyl)morpholin-2-yl)(5-methylpyridin-2-yl)methyl)amino)thianthren-1-yl)-4-morpholino pyridin-2(1H)-one], less than 100 nM; as for `COCCN1CCOC(C(Nc2ccc3c(c2)Sc2cccc(-c4cc(N5CCOCC5)cc(=O)[nH]4)c2S3)c2ccc(C)cn2)C1` (single isomer, unassigned) [Example 1-56-9, 6-(7-(((4-(2-Methoxyethyl)morpholin-2-yl)(5-methylpyridin-2-yl)methyl)amino)thianthren-1-yl)-4-morpholino pyridin-2(1H)-one], less than 100 nM.
In the case of `Cc1ccc(CN2CCC(Nc3ccc4c(c3)Cc3cccc(-c5cc(N6CCOCC6)cc(=O)[nH]5)c3O4)CC2)cn1` [Example 2-28-10, 6-(7-((1-((6-Methylpyridin-3-yl)methyl)piperidin-4-yl)amino)-9H-xanthen-4-yl)-4-morpholino pyridin-2(1H)-one] it was 100 to 500 nM; in that of `COc1ccnc(C(C)Nc2ccc3c(c2)Cc2cccc(-c4cc(N5CCOCC5)cc(=O)[nH]4)c2O3)c1` (single isomer, unassigned) [Example 2-14-86-1, 6-(7-((1-(4-methoxypyridin-2-yl)ethyl)amino)-9H-xanthen-4-yl)-4-morpholinopyridin-2(1H)-one], 100 to 500 nM; in that of `O=c1cc(N2CCOCC2)cc(-c2cccc3c2Oc2ccc(NCc4ccccc4)cc2C3)[nH]1` [Example 2-14-3, 6-(7-(Benzylamino)-9H-xanthen-4-yl)-4-morpholino pyridin-2(1H)-one], 100 to 500 nM.
`CCC(C(=O)Nc1ccc2c(c1)Sc1cccc(-c3cc(N4CCOCC4)cc(=O)[nH]3)c1S2)N1CCCC1` (stereo not drawn) [Example 1-6-1, N-(6-(4-morpholino-6-oxo-1,6-dihydropyridin-2-yl)thianthren-2-yl)-2-(pyrrolidin-1-yl)butanamide]: the IC50 fell in the range of 100 to 500 nM.
In the case of `COc1nccc(C(C)Nc2ccc3c(c2)Cc2cccc(-c4cc(N5CCOCC5)cc(=O)[nH]4)c2O3)n1` (stereo not drawn) [Example 2-14-63, 6-(7-((1-(2-Methoxypyrimidin-4-yl)ethyl)amino)-9H-xanthen-4-yl)-4-morpholino pyridin-2(1H)-one], the IC50 fell in the range of 100 to 500 nM.
As for `O=c1cc(N2CCOCC2)cc(-c2cccc3c2Oc2ccc(NC4CCN(Cc5cccnc5)CC4)cc2C3)[nH]1` [Example 2-9-2, 4-Morpholino-6-(7-((1-(pyridin-3-ylmethyl)piperidin-4-yl)amino)-9H-xanthen-4-yl)pyridin-2(1H)-one], the figure is 100 to 500 nM.
`O=c1cc(N2CCOCC2)cc(-c2cccc3c2Sc2ccc(NCc4ccncn4)cc2S3)[nH]1` [Example 1-12-36, 4-Morpholino-6-(7-((pyrimidin-4-ylmethyl)amino)thianthren-1-yl) pyridin-2(1H)-one]: the IC50 lay within 100 to 500 nM.
`CC(CN1CCN(Cc2ccncc2)CC1)Nc1ccc2c(c1)Sc1cccc(-c3cc(N4CCOCC4)cc(=O)[nH]3)c1S2` (stereo not drawn) [Example 1-15-4, 4-Morpholino-6-(7-((1-(4-(pyridin-4-ylmethyl)piperazin-1-yl)propan-2-yl)amino)thianthren-1-yl)pyridin-2(1H)-one]: the IC50 lay in the range of 100 to 500 nM.
In the case of `COc1ccncc1CNc1ccc2c(c1)Cc1cccc(-c3cc(N4CCOCC4)cc(=O)[nH]3)c1O2` [Example 2-2-34, 6-(7-(((4-Methoxypyridin-3-yl)methyl)amino)-9H-xanthen-4-yl)-4-morpholino pyridin-2(1H)-one] it was 500 to 2000 nM; in that of `COCC(=O)N1CCC(Nc2ccc3c(c2)Sc2cccc(-c4cc(N5CCOCC5)cc(=O)[nH]4)c2S3)CC1` [Example 1-28, 6-(7-((1-(2-methoxyacetyl)piperidin-4-yl)amino)thianthren-1-yl)-4-morpholinopyridin-2(1H)-one], 500 to 2000 nM; in that of `O=c1cc(N2CCOCC2)cc(-c2cccc3c2Sc2ccc(NC4CCN(C5CCCCC5)C4)cc2S3)[nH]1` (stereo not drawn) [Example 1-24-9, 6-(7-((1-Cyclohexylpyrrolidin-3-yl)amino)thianthren-1-yl)-4-morpholinopyridin-2(1H)-one], 100 to 500 nM.
As for `O=c1cc(N2CCOCC2)cc(-c2cccc3c2Oc2ccc(NC4CCN(CCc5ccc(F)cc5)CC4)cc2C3)[nH]1` [Example 2-30-14, 6-(7-((1-(4-Fluorophenethyl)piperidin-4-yl)amino)-9H-xanthen-4-yl)-4-morpholino pyridin-2(1H)-one], the figure is 100 to 500 nM; as for `COC(=O)CCCCN1CCC(Nc2ccc3c(c2)Cc2cccc(-c4cc(N5CCOCC5)cc(=O)[nH]4)c2O3)CC1` [Example 2-30-16, Methyl 5-(4-((5-(4-morpholino-6-oxo-1,6-dihydropyridin-2-yl)-9H-xanthen-2-yl)amino)piperidin-1-yl)pentanoate], 100 to 500 nM; as for `Cc1ccc(C(Nc2ccc3c(c2)Sc2cccc(-c4cc(N5CCOCC5)cc(=O)[nH]4)c2S3)[C@H]2CN(C)CCO2)nc1` (single isomer, unassigned) [Example 1-56-13], less than 100 nM.
As for `Cc1ccnc(C(C)Nc2ccc3c(c2)Cc2cccc(-c4cc(N5CCOCC5)cc(=O)[nH]4)c2O3)c1` (single isomer, unassigned) [Example 2-14-93-1, 6-(7-((1-(4-methylpyridin-2-yl)ethyl)amino)-9H-xanthen-4-yl)-4-morpholinopyridin-2(1H)-one], the figure is 100 to 500 nM; as for `COc1ncccc1CNc1ccc2c(c1)Cc1cccc(-c3cc(N4CCOCC4)cc(=O)[nH]3)c1S2` [Example 3-8-8, 6-(7-(((2-Methoxypyridin-3-yl)methyl)amino)-9H-thioxanthen-4-yl)-4-morpholino pyridin-2 (1H)-one], 500 to 2000 nM.
In the case of `CN[C@@H](Cc1ccccc1)C(=O)Nc1ccc2c(c1)Sc1cccc(-c3cc(N4CCOCC4)cc(=O)[nH]3)c1S2` [Example 1-4, (S)-2-(methylamino)-N-(6-(4-morpholino-6-oxo-1,6-dihydropyridin-2-yl)thianthren-2-yl)-3-phenyl propanamide], the IC50 was 100 to 500 nM.
